Laboratory results published in paper PMC10023787, “Trio-pharmacophore DNA-encoded chemical library for simultaneous selection of fragments and linkers” (Nature Communications, 2023).
Entries after “also recorded” stand apart in the source; their conditions may differ. Where two headings read alike, the source gives them in different places.

Legend:
[1] = target: T1, MMP-2 (Homo sapiens, UniProt P08253); assay: De novo T-DEL selection against MMP-2, NGS decoding; type: binding
T1 construct: purchased Sino Biological 10082-HNAH
T1 sequence (P08253 110-660): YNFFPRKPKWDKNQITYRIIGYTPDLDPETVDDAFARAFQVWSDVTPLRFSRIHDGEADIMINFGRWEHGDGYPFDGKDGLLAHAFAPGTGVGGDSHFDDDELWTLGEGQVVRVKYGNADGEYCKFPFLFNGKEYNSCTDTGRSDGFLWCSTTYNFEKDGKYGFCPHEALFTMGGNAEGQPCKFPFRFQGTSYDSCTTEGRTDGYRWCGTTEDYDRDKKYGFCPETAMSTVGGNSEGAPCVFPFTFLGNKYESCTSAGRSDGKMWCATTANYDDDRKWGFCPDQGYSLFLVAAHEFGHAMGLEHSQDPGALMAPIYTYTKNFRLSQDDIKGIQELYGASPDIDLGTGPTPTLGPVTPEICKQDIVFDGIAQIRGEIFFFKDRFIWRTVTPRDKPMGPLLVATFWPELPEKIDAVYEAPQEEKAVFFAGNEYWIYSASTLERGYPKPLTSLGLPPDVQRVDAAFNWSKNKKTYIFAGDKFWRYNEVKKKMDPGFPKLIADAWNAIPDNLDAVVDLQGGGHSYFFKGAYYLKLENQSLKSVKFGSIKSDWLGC
From the text: Matrix metalloproteinases (MMPs) are zinc-dependent endopeptidases capable of degrading and remodeling extracellular matrix components[46],[47]. They are attractive therapeutic targets as high expression levels were detected in various diseases, such as inflammatory diseases, and at different stages of cancers, including metastasis, invasion, and angiogenesis[47]–[53]. As shown in Supplementary Fig. 3c, we performed selections against the two gelatinases (human MMP-2 and human MMP-9) to identify binding fragments for later design and synthesis of small molecule inhibitors. After selection, the three sub-libraries were decoded, and the enrichment was calculated by dividing the post-selection fraction (count/total counts) by the pre-selection fraction (Fig. 4a and Supplementary Fig. 13).
4 µg of MMP-2/MMP-9 was dissolved in 100 µl of selection buffer containing 25 mM Tris-base, 10 mM CaCl2, 150 mM NaCl, 0.05% Tween 20, pH 7.5. 10 µl of 4-Aminophenylmercuric acetate (APMA) (100 mM) solution was added to the protein solution and incubated at 37 °C for 1 h. After activation, the solution was added on top of 40 µl pre-washed Ni-NTA resin and incubated for 30 min on a rotary shaker. The supernatant was discarded, and the resin was washed three times with the selection buffer.
For each independent selection, three sub-libraries were mixed in the selection buffer with a final concentration of 40 nM of each sub-library in 100 µl. The mixture was heat denatured at 90 °C for 1 min and slowly cooled down to allow the formation of the trio-pharmacophore library. The dynamic dual-pharmacophore DEL was provided by DyNAbind GmbH (Merck, DYNA001).
The assembled library was incubated with the protein-bound solid support for 2 h at RT on a rotary shaker. In parallel, selection on bare solid support served as the negative control to exclude promiscuous binders on the resin. After panning, the supernatant was discarded, and the resin was washed three times with 1 ml selection buffer. Finally, 100 µl of 50 mM Tris buffer, pH 7.4 was added to resuspend the resin and the resin was incubated at 95 °C for 5 min to denature the protein, release, and collect the bound library members.
The eluted library members were subjected to sample preparation for NGS. NGS preparation was achieved by two-step PCR. First, the individual selection was indexed using primers containing unique sequences corresponding to each selection. The amplified product was purified from 2% agarose gel. Second, the purified DNA from all selections were pooled in equal amount and subjected to the 2nd PCR step to attach sequences compatible with the NGS flow cell and the sequencing primers. NGS was performed by Novogene UK with Novaseq 6000. Raw data files (fastq files) obtained were decoded using a custom python script and excel. The sequence reads corresponding to each sample was retrieved by searching for the correct index unique to each selection. Then, the code region was extracted from each sequence and assigned to the corresponding identity. The count of each code in each selection sample was obtained by looping through the total reads and counting the occurrence of each code. The enrichment fold of each compound was calculated by first, dividing the count by the total count to get the abundance, second, the abundance after the selection was divided by the abundance of pre-selection to reflect the distribution change of the compound. Next, the enrichment fold was plotted against the count for each member of the library to give the scatter plots as in Fig. 4.

[2] = target: T1, MMP-2; assay: MMP-2 inhibition assay (fluorogenic peptide substrate); type: biochemical
Outline: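 Human proMMP-2 and proMMP-9 were activated with 1 mM APMA (37 °C, 2 h), then used at 6.5 nM (MMP-2) or 10 nM (MMP-9) in Tris/NaCl/CaCl2/Brij 35 buffer, pH 7.5. Enzyme was preincubated with compound 30 min at RT; 25 μM DNP-Pro-Leu-Gly-Met-Trp-Ser-Arg substrate was added and fluorescence (ex 280/em 360 nm) followed 30 min. IC50 from logistic fits of Vmax.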

MMP2 SL-A Count ([1]; NGS sequence count of sub-library SL-A building block, de novo T-DEL selection against MMP-2): 1212 | MMP2 SL-C Enrichment Fold ([1]; enrichment fold of sub-library SL-C member, MMP-2 selection, Figure 4a source data): 2.518 | MMP2 SL-C Count ([1]; sequence count of sub-library SL-C member, MMP-2 selection, Figure 4a source data): 5893 | MMP2 SL-A Enrichment Fold ([1]; sub-library SL-A building block, de novo T-DEL selection against MMP-2): 1.562 | remaining activity at 0.0305176 µM ([2]; Figure 5a, fragment concentration 0.0305176 µM, read-out: Normalized activity (Mean)): 105% | remaining activity at 0.12207 µM ([2]; Figure 5a, fragment concentration 0.12207 µM, read-out: Normalized activity (Mean)): 112% | remaining activity at 0.488281 µM ([2]; Figure 5a, fragment concentration 0.488281 µM, read-out: Normalized activity (Mean)): 97.4% | remaining activity at 1.95312 µM ([2]; Figure 5a, fragment concentration 1.95312 µM, read-out: Normalized activity (Mean)): 96.2% | remaining activity at 7.8125 µM ([2]; Figure 5a, fragment concentration 7.8125 µM, read-out: Normalized activity (Mean)): 103% | remaining activity at 31.25 µM ([2]; Figure 5a, fragment concentration 31.25 µM, read-out: Normalized activity (Mean)): 92.9% | remaining activity at 125 µM ([2]; Figure 5a, fragment concentration 125 µM, read-out: Normalized activity (Mean)): 97.7% | remaining activity at 500 µM ([2]; Figure 5a, fragment concentration 500 µM, read-out: Normalized activity (Mean)): 89.5% | remaining activity at 0.12 µM ([2]; MMP-2, concentration 0.12 µM, read-out: Mean (MMP-2, Supplementary fig 16)): 112% | remaining activity at 0.49 µM ([2]; MMP-2, concentration 0.49 µM, read-out: Mean (MMP-2, Supplementary fig 16)): 97.4% | remaining activity at 1.95 µM ([2]; MMP-2, concentration 1.95 µM, read-out: Mean (MMP-2, Supplementary fig 16)): 96.2% | remaining activity at 7.81 µM ([2]; MMP-2, concentration 7.81 µM, read-out: Mean (MMP-2, Supplementary fig 16)): 103% | remaining activity at 31.25 µM ([2]; MMP-2, concentration 31.25 µM, read-out: Mean (MMP-2, Supplementary fig 16)): 92.9% | remaining activity at 125 µM ([2]; MMP-2, concentration 125.00 µM, read-out: Mean (MMP-2, Supplementary fig 16)): 97.7% | remaining activity at 500 µM ([2]; MMP-2, concentration 500.00 µM, read-out: Mean (MMP-2, Supplementary fig 16)): 89.5% | remaining activity at 0.12 µM ([2]; MMP-2, concentration 0.12 µM, read-out: Mean (MMP-2 dose-response, Supplementary fig 15)): 112% | remaining activity at 0.12 µM ([2]; MMP-2, concentration 0.12 µM, read-out: Mean (dose-response, Supplementary fig 17)): 112% | remaining activity at 0.49 µM ([2]; MMP-2, concentration 0.49 µM, read-out: Mean (MMP-2 dose-response, Supplementary fig 15)): 97.4% | remaining activity at 0.49 µM ([2]; MMP-2, concentration 0.49 µM, read-out: Mean (dose-response, Supplementary fig 17)): 97.4% | remaining activity at 1.95 µM ([2]; MMP-2, concentration 1.95 µM, read-out: Mean (MMP-2 dose-response, Supplementary fig 15)): 96.2% | remaining activity at 1.95 µM ([2]; MMP-2, concentration 1.95 µM, read-out: Mean (dose-response, Supplementary fig 17)): 96.2% | remaining activity at 7.81 µM ([2]; MMP-2, concentration 7.81 µM, read-out: Mean (MMP-2 dose-response, Supplementary fig 15)): 103% | remaining activity at 7.81 µM ([2]; MMP-2, concentration 7.81 µM, read-out: Mean (dose-response, Supplementary fig 17)): 103% | remaining activity at 31.25 µM ([2]; MMP-2, concentration 31.25 µM, read-out: Mean (MMP-2 dose-response, Supplementary fig 15)): 92.9% | remaining activity at 31.25 µM ([2]; MMP-2, concentration 31.25 µM, read-out: Mean (dose-response, Supplementary fig 17)): 92.9% | remaining activity at 125 µM ([2]; MMP-2, concentration 125.00 µM, read-out: Mean (MMP-2 dose-response, Supplementary fig 15)): 97.7% | remaining activity at 125 µM ([2]; MMP-2, concentration 125.00 µM, read-out: Mean (dose-response, Supplementary fig 17)): 97.7% | remaining activity at 500 µM ([2]; MMP-2, concentration 500.00 µM, read-out: Mean (MMP-2 dose-response, Supplementary fig 15)): 89.5% | remaining activity at 500 µM ([2]; MMP-2, concentration 500.00 µM, read-out: Mean (dose-response, Supplementary fig 17)): 89.5%
Structure (SMILES): Cn1c(O)nc2cc(C(=O)O)cnc21 [Compound 826]
inhibitory effect ([2]; in words): No inhibitory effects could be measured; also recorded: did not exhibit meaningful activity
